Source: patent publication US10538554B2, “Peptides and uses therefor as antiviral agents” (priority 2015, dated 2020)
Bridge positions count the residues as written; N and C are the ends. Square brackets hold non-standard residues; d marks the D form. Peptide text beside a SMILES is read from it.

System: H1N1 A/PR/8/1934
Details: A/PR/8/1934, 48 h; for % Inhibition: 1 μM

| Compound | % Inhibition | IC50 |
| --- | --- | --- |
| CC[C@@H](C)[C@H]1NC(=O)[C@@H](Cc2ccccc2)NC(=O)[C@@H]([C@H](C)O)NC(=O)[C@@H](Cc2ccccc2)NC(=O)[C@@H](Cc2c[nH]c3ccccc23)NC(=O)[C@@H](Cc2c[nH]c3ccccc23)NC(=O)[C@H](NC(=O)[C@H](CCCCN)NC(=O)[C@H](CCCCN)NC(=O)[C@H](CCCNC(=N)N)NC(=O)[C@@H](N)CCCNC(=N)N)CSSC[C@H](C(=O)O)NC(=O)[C@@H](Cc2c[nH]c3ccccc23)NC1=O [PSP VI A19, H-RRKKcwwftfiwc-OH] (H-RRKK[dC][dW][dW][dF][dT][dF][dI][dW][dC]-OH; disulfide 5-13) | 78% |  |
| CC[C@@H](C)[C@H]1NC(=O)[C@@H](Cc2ccccc2)NC(=O)[C@@H]([C@H](C)O)NC(=O)[C@@H](Cc2ccccc2)NC(=O)[C@@H](Cc2c[nH]c3ccccc23)NC(=O)[C@@H](Cc2c[nH]c3ccccc23)NC(=O)[C@H](NC(=O)[C@H](CCCCN)NC(=O)[C@H](CCCCN)NC(=O)[C@H](CCCNC(=N)N)NC(=O)[C@@H](N)CCCNC(=N)N)CSSC[C@H](C(=O)O)NC(=O)[C@@H](CO)NC1=O [PSP VI A16, H-RRKKcwwftfisc-OH] (H-RRKK[dC][dW][dW][dF][dT][dF][dI][dS][dC]-OH; disulfide 5-13) | 74% |  |
| CC[C@@H](C)[C@H]1NC(=O)[C@@H](Cc2ccccc2)NC(=O)[C@@H]([C@H](C)O)NC(=O)[C@@H](Cc2ccccc2)NC(=O)[C@@H](Cc2c[nH]c3ccccc23)NC(=O)[C@@H](CC(C)C)NC(=O)[C@H](NC(=O)[C@H](CCCCN)NC(=O)[C@H](CCCCN)NC(=O)[C@H](CCCNC(=N)N)NC(=O)[C@@H](N)CCCNC(=N)N)CSSC[C@H](C(=O)O)NC(=O)[C@@H](CC(N)=O)NC1=O [PSP V A10, H-RRKKclwftfinc-OH] (H-RRKK[dC][dL][dW][dF][dT][dF][dI][dN][dC]-OH; disulfide 5-13) | 65% |  |
| CC[C@@H](C)[C@H]1NC(=O)[C@@H](Cc2ccccc2)NC(=O)[C@@H]([C@H](C)O)NC(=O)[C@@H](Cc2ccccc2)NC(=O)[C@@H](Cc2c[nH]c3ccccc23)NC(=O)[C@@H](Cc2c[nH]c3ccccc23)NC(=O)[C@H](NC(=O)[C@H](CCCCN)NC(=O)[C@H](CCCCN)NC(=O)[C@H](CCCNC(=N)N)NC(=O)[C@@H](N)CCCNC(=N)N)CSSC[C@H](C(=O)O)NC(=O)[C@@H](CCCNC(=N)N)NC1=O [PSP VI A15, H-RRKKcwwftfirc-OH] (H-RRKK[dC][dW][dW][dF][dT][dF][dI][dR][dC]-OH; disulfide 5-13) | 92% |  |
| CC[C@@H](C)[C@H]1NC(=O)[C@@H](Cc2ccccc2)NC(=O)[C@@H]([C@H](C)O)NC(=O)[C@@H](Cc2ccccc2)NC(=O)[C@@H](Cc2c[nH]c3ccccc23)NC(=O)[C@@H](Cc2c[nH]c3ccccc23)NC(=O)[C@H](NC(=O)[C@H](CCCCN)NC(=O)[C@H](CCCCN)NC(=O)[C@H](CCCNC(=N)N)NC(=O)[C@@H](N)CCCNC(=N)N)CSSC[C@H](C(=O)O)NC(=O)CNC1=O [PSP VI A6, H RRKKcwwftfiGc-OH] (H-RRKK[dC][dW][dW][dF][dT][dF][dI]G[dC]-OH; disulfide 5-13) | 69% |  |
| CC[C@@H](C)[C@H]1NC(=O)[C@@H](Cc2ccccc2)NC(=O)[C@@H]([C@H](C)O)NC(=O)[C@@H](Cc2ccccc2)NC(=O)[C@@H](Cc2c[nH]c3ccccc23)NC(=O)[C@@H](Cc2c[nH]c3ccccc23)NC(=O)[C@H](NC(=O)[C@H](CCCCN)NC(=O)[C@H](CCCCN)NC(=O)[C@H](CCCNC(=N)N)NC(=O)[C@@H](N)CCCNC(=N)N)CSSC[C@H](C(=O)O)NC(=O)[C@@H](CCC(N)=O)NC1=O [PSP VI A14, H-RRKKcwwftfiqc-OH] (H-RRKK[dC][dW][dW][dF][dT][dF][dI][dQ][dC]-OH; disulfide 5-13) | 85% |  |
| CC[C@@H](C)[C@H]1NC(=O)[C@@H](Cc2ccccc2)NC(=O)[C@@H]([C@H](C)O)NC(=O)[C@@H](Cc2ccccc2)NC(=O)[C@@H](Cc2c[nH]c3ccccc23)NC(=O)[C@@H](CCC(=O)O)NC(=O)[C@H](NC(=O)[C@H](CCCCN)NC(=O)[C@H](CCCCN)NC(=O)[C@H](CCCNC(=N)N)NC(=O)[C@@H](N)CCCNC(=N)N)CSSC[C@H](C(=O)O)NC(=O)[C@@H](CC(N)=O)NC1=O [PSP V A4, H-RRKKcewftfinc-OH] (H-RRKK[dC][dE][dW][dF][dT][dF][dI][dN][dC]-OH; disulfide 5-13) | 27% |  |
| CC[C@@H](C)[C@H]1NC(=O)[C@@H](Cc2ccccc2)NC(=O)[C@@H]([C@H](C)O)NC(=O)[C@@H](Cc2ccccc2)NC(=O)[C@@H](Cc2c[nH]c3ccccc23)NC(=O)[C@@H](CO)NC(=O)[C@H](NC(=O)[C@H](CCCCN)NC(=O)[C@H](CCCCN)NC(=O)[C@H](CCCNC(=N)N)NC(=O)[C@@H](N)CCCNC(=N)N)CSSC[C@H](C(=O)O)NC(=O)[C@@H](CC(N)=O)NC1=O [PSP V A16, H-RRKKcswftfinc-OH] (H-RRKK[dC][dS][dW][dF][dT][dF][dI][dN][dC]-OH; disulfide 5-13) | 54% |  |
| CC[C@@H](C)[C@H]1NC(=O)[C@@H](Cc2ccccc2)NC(=O)[C@@H]([C@H](C)O)NC(=O)[C@@H](Cc2ccccc2)NC(=O)[C@@H](Cc2c[nH]c3ccccc23)NC(=O)[C@@H](Cc2c[nH]c3ccccc23)NC(=O)[C@H](NC(=O)[C@H](CCCCN)NC(=O)[C@H](CCCCN)NC(=O)[C@H](CCCNC(=N)N)NC(=O)[C@@H](N)CCCNC(=N)N)CSSC[C@H](C(=O)O)NC(=O)[C@@H](Cc2ccc(O)cc2)NC1=O [PSP VI A20, H-RRKKcwwftfiyc-OH] (H-RRKK[dC][dW][dW][dF][dT][dF][dI][dY][dC]-OH; disulfide 5-13) | 53% |  |
| CC[C@@H](C)[C@H]1NC(=O)[C@@H](Cc2ccccc2)NC(=O)[C@@H]([C@H](C)O)NC(=O)[C@@H](Cc2ccccc2)NC(=O)[C@@H](Cc2c[nH]c3ccccc23)NC(=O)[C@@H]([C@H](C)CC)NC(=O)[C@H](NC(=O)[C@H](CCCCN)NC(=O)[C@H](CCCCN)NC(=O)[C@H](CCCNC(=N)N)NC(=O)[C@@H](N)CCCNC(=N)N)CSSC[C@H](C(=O)O)NC(=O)[C@@H](CC(N)=O)NC1=O [PSP V A8, H-RRKKciwftfinc-OH] (H-RRKK[dC][dI][dW][dF][dT][dF][dI][dN][dC]-OH; disulfide 5-13) | 20% |  |
| CC[C@@H](C)[C@H]1NC(=O)[C@@H](Cc2ccccc2)NC(=O)[C@@H]([C@H](C)O)NC(=O)[C@@H](Cc2ccccc2)NC(=O)[C@@H](Cc2c[nH]c3ccccc23)NC(=O)[C@@H](CCSC)NC(=O)[C@H](NC(=O)[C@H](CCCCN)NC(=O)[C@H](CCCCN)NC(=O)[C@H](CCCNC(=N)N)NC(=O)[C@@H](N)CCCNC(=N)N)CSSC[C@H](C(=O)O)NC(=O)[C@@H](CC(N)=O)NC1=O [PSP V A11, M-RRKKcmwftfinc-OH] (H-RRKK[dC][dM][dW][dF][dT][dF][dI][dN][dC]-OH; disulfide 5-13; N-terminus assumed) | 92% |  |
| CC[C@@H](C)[C@H]1NC(=O)[C@@H](Cc2ccccc2)NC(=O)[C@@H]([C@H](C)O)NC(=O)[C@@H](Cc2ccccc2)NC(=O)[C@@H](Cc2c[nH]c3ccccc23)NC(=O)[C@@H](Cc2c[nH]c3ccccc23)NC(=O)[C@H](NC(=O)[C@H](CCCCN)NC(=O)[C@H](CCCCN)NC(=O)[C@H](CCCNC(=N)N)NC(=O)[C@@H](N)CCCNC(=N)N)CSSC[C@H](C(=O)O)NC(=O)[C@@H](CCC(=O)O)NC1=O [PSP VI A4, H-RRKKcwwftfiec-OH] (H-RRKK[dC][dW][dW][dF][dT][dF][dI][dE][dC]-OH; disulfide 5-13) | 65% |  |
| CC[C@@H](C)[C@H]1NC(=O)[C@@H](Cc2ccccc2)NC(=O)[C@@H]([C@H](C)O)NC(=O)[C@@H](Cc2ccccc2)NC(=O)[C@@H](Cc2c[nH]c3ccccc23)NC(=O)[C@@H](CC(=O)O)NC(=O)[C@H](NC(=O)[C@H](CCCCN)NC(=O)[C@H](CCCCN)NC(=O)[C@H](CCCNC(=N)N)NC(=O)[C@@H](N)CCCNC(=N)N)CSSC[C@H](C(=O)O)NC(=O)[C@@H](CC(N)=O)NC1=O [PSP V A3, H-RRKKcdwftfinc-OH] (H-RRKK[dC][dD][dW][dF][dT][dF][dI][dN][dC]-OH; disulfide 5-13) | <20% |  |
| CC[C@@H](C)[C@H]1NC(=O)[C@@H](Cc2ccccc2)NC(=O)[C@@H]([C@H](C)O)NC(=O)[C@@H](Cc2ccccc2)NC(=O)[C@@H](Cc2c[nH]c3ccccc23)NC(=O)[C@@H](CCC(N)=O)NC(=O)[C@H](NC(=O)[C@H](CCCCN)NC(=O)[C@H](CCCCN)NC(=O)[C@H](CCCNC(=N)N)NC(=O)[C@@H](N)CCCNC(=N)N)CSSC[C@H](C(=O)O)NC(=O)[C@@H](CC(N)=O)NC1=O [PSP V A14, H-RRKKcqwftfinc-OH] (H-RRKK[dC][dQ][dW][dF][dT][dF][dI][dN][dC]-OH; disulfide 5-13) | 44% |  |
| CC[C@@H](C)[C@H]1NC(=O)[C@@H](Cc2ccccc2)NC(=O)[C@@H]([C@H](C)O)NC(=O)[C@@H](Cc2ccccc2)NC(=O)[C@@H](Cc2c[nH]c3ccccc23)NC(=O)[C@@H](Cc2c[nH]c3ccccc23)NC(=O)[C@H](NC(=O)[C@H](CCCCN)NC(=O)[C@H](CCCCN)NC(=O)[C@H](CCCNC(=N)N)NC(=O)[C@@H](N)CCCNC(=N)N)CSSC[C@H](C(=O)O)NC(=O)[C@@H](CC(N)=O)NC1=O [PSP V A19, H-RRKKcwwftfinc-OH] (H-RRKK[dC][dW][dW][dF][dT][dF][dI][dN][dC]-OH; disulfide 5-13) | 97% | 20 nM |
| CC[C@@H](C)[C@H]1NC(=O)[C@@H](Cc2ccccc2)NC(=O)[C@@H]([C@H](C)O)NC(=O)[C@@H](Cc2ccccc2)NC(=O)[C@@H](Cc2c[nH]c3ccccc23)NC(=O)[C@@H](Cc2c[nH]c3ccccc23)NC(=O)[C@H](NC(=O)[C@H](CCCCN)NC(=O)[C@H](CCCCN)NC(=O)[C@H](CCCNC(=N)N)NC(=O)[C@@H](N)CCCNC(=N)N)CSSC[C@H](C(=O)O)NC(=O)[C@@H](Cc2ccccc2)NC1=O [PSP VI A5, H-RRKKcwwftfifc-OH] (H-RRKK[dC][dW][dW][dF][dT][dF][dI][dF][dC]-OH; disulfide 5-13) | 60% |  |
